Reference: patent publication US20200079757A1, “COMPOUNDS FOR THE TREATMENT OF RESPIRATORY DISEASES” (THE UNIVERSITY OF MELBOURNE, priority 2017, published 2020)

How the values were obtained:
[1] = system: SCNN1A gene expression in BEAS-2B cells; test: TGF-β-induced suppression of dexamethasone-induced SCNN1A gene expression in BEAS-2B cells; format: cell-based; settings: for SCNN1A mRNA level, Dex / SCNN1A mRNA level, TGF-β / SCNN1A mRNA level, TGF-β/Dex / SCNN1A mRNA level, vehicle (no stimulus): BEAS-2B
Method: The primary assay for the activity of the novel CK1δ/ε inhibitors is the modulation of gene expression in the airway epithelial cell line, the BEAS-2B cells. The assay is conducted under several conditions. Generally, TGF-β or TNF-α is used to elicit fibrogenic or inflammatory genes, respectively. The agents are added at a concentration of 10 μM, or at the indicated concentrations for a period of 30 min prior to the addition of TGF-β/TNF-α which are incubated for a further 20 hours before the addition, in some experiments of the glucocorticoid, dexamethasone (Dex, 30 nM) for the final 4 hours of the experiment, prior to harvest of cellular RNA to measure by RT-qPCR the levels of mRNA of marker genes for inflammation and fibrogenesis. The inhaled corticosteroid (ICS), budesonide is also used in some experiments. Furthermore, the supernatants are harvested at the end of the incubation periods in selected experiments to measure the levels of CSF-2 or IL-8 by ELISA as described in (Tran et al. (2005) British Journal of Pharmacology, 145, 123-131). Prior to experimentation, BEAS-2B and A549 cells were incubated in serum-free DMEM containing 0.25% bovine serum albumin (BSA) and insulin-transferrin-selenium—containing supplement (Monomed A; CSL, Parkville, Melbourne, Australia). Where indicated, cells were treated with one of the series of synthesised compounds (0.3-10 μM) prior to exposure to 100 pM TGF-β1 (R&D Systems, Minneapolis, Minn.) or 300 pM bFGF (Promega, Madison, Wis.). Total RNA was extracted from cultured cells using illustra RNAspin Mini RNA Isolation Kit (GE Healthcare). RNA extracts were reverse-transcribed into cDNA using High-Capacity RNA-to-cDNA Kit (Applied Biosystems). Real-time PCR was then performed using a QuantStudio 6 Flex Real-Time PCR System using iTaq Universal SYBR green supermix and the following thermal protocol: 50° C. (2 min), 95° C. (10 min), then 40 cycles of 95° C. (15 sec), 60° C. (1 min). The threshold cycle (CT) values determined for target genes were normalized against those obtained for 18S ribosomal RNA (18S rRNA), which was included as internal control. The generation of specific PCR products was confirmed by dissociation curve analysis. In FIG. 1, the effects of SS9-010 are contrasted with those of PF670462 in an assay in BEAS-B cells measuring the induction of the glucocorticoid-regulated gene, SCNN1A encoding the protein epithelial sodium channel alpha subunit. Serum-starved BEAS-2B cells were treated with CK1δ/ε inhibitor PF670462 (1, 3, 10 μM) or SS9-010 (1, 3, 10 μM) 30 min prior to TGF-β1 (40 pM) for 24 hours, then stimulated with dexamethasone (30 nM) for 4 hours. RNA was then extracted and analyzed by RT-qPCR. Data are presented as mean±SEM for n=4 independent experiments. The potency of PF670462 and SS9-010 were similar.

[2] = system: PAI-1 gene expression in BEAS-2B cells; test: TNF-α and TGF-β induced PAI-1 gene expression in BEAS-2B cells (RT-qPCR); format: cell-based; settings: for TNFa stimulated PAI-1 expression: 30 min pretreatment 1-10 μM, n=1, similar potency and maxima
Method: The primary assay for the activity of the novel CK1δ/ε inhibitors is the modulation of gene expression in the airway epithelial cell line, the BEAS-2B cells. The assay is conducted under several conditions. Generally, TGF-β or TNF-α is used to elicit fibrogenic or inflammatory genes, respectively. The agents are added at a concentration of 10 μM, or at the indicated concentrations for a period of 30 min prior to the addition of TGF-β/TNF-α which are incubated for a further 20 hours before the addition, in some experiments of the glucocorticoid, dexamethasone (Dex, 30 nM) for the final 4 hours of the experiment, prior to harvest of cellular RNA to measure by RT-qPCR the levels of mRNA of marker genes for inflammation and fibrogenesis. The inhaled corticosteroid (ICS), budesonide is also used in some experiments. Furthermore, the supernatants are harvested at the end of the incubation periods in selected experiments to measure the levels of CSF-2 or IL-8 by ELISA as described in (Tran et al. (2005) British Journal of Pharmacology, 145, 123-131). Prior to experimentation, BEAS-2B and A549 cells were incubated in serum-free DMEM containing 0.25% bovine serum albumin (BSA) and insulin-transferrin-selenium—containing supplement (Monomed A; CSL, Parkville, Melbourne, Australia). Where indicated, cells were treated with one of the series of synthesised compounds (0.3-10 μM) prior to exposure to 100 pM TGF-β1 (R&D Systems, Minneapolis, Minn.) or 300 pM bFGF (Promega, Madison, Wis.). Total RNA was extracted from cultured cells using illustra RNAspin Mini RNA Isolation Kit (GE Healthcare). RNA extracts were reverse-transcribed into cDNA using High-Capacity RNA-to-cDNA Kit (Applied Biosystems). Real-time PCR was then performed using a QuantStudio 6 Flex Real-Time PCR System using iTaq Universal SYBR green supermix and the following thermal protocol: 50° C. (2 min), 95° C. (10 min), then 40 cycles of 95° C. (15 sec), 60° C. (1 min). The threshold cycle (CT) values determined for target genes were normalized against those obtained for 18S ribosomal RNA (18S rRNA), which was included as internal control. The generation of specific PCR products was confirmed by dissociation curve analysis. In the same experiment as described in FIG. 1, the expression of the fibrogen plasminogen activator inhibitor-1 was measured (see FIG. 2). The levels of this gene are increased by both TGF-β and by Dex and they synergise when added together. The CK1 inhibitors concentration-dependently reduce the effects of each of the stimuli and further reduce baseline expression. Their potency in this effect is similar, regardless of the condition being considered. In a separate experiment BEAS-2B cells were exposed to TNF-α with(out) 30 min pretreatment with either SS9-010 or PF670462 (1-10 μM). RNA was then extracted and analyzed by RT-qPCR. Each agent inhibited TNFa stimulated PAI-1 expression with similar potency and maxima (see FIG. 3). Data are presented as mean±SD for n=1 (three technical replicates).

Row | SMILES | SCNN1A mRNA level, Dex ([1]; agent 3 μM) [fold control] | SCNN1A mRNA level, TGF-β ([1]; agent 3 μM) [fold control] | SCNN1A mRNA level, TGF-β/Dex ([1]; agent 3 μM) [fold control] | SCNN1A mRNA level, vehicle (no stimulus) ([1]; agent 3 μM) [fold control] | TNFa stimulated PAI-1 expression [2] | PAI-1 mRNA level, TGF-β ([2]; agent 3 μM) [fold control] | PAI-1 mRNA level, TNF-α (n = 2) ([2]; agent 3 μM) [fold control] | PAI-1 mRNA level, TGF-β ([2]; agent 10 μM) [fold control] | PAI-1 mRNA level, TNF-α (n = 2) ([2]; agent 10 μM) [fold control] | PAI-1 mRNA level, vehicle (no stimulus) ([2]; agent 10 μM) [fold control] | SCNN1A mRNA level, Dex ([1]; agent 10 μM) [fold control] | SCNN1A mRNA level, TGF-β ([1]; agent 10 μM) [fold control] | SCNN1A mRNA level, TGF-β/Dex ([1]; agent 10 μM) [fold control] | SCNN1A mRNA level, vehicle (no stimulus) ([1]; agent 10 μM) [fold control] | potency compared with PF670462, induction of glucocorticoid-regulated gene SCNN1A ([1]; BEAS-2B, 1, 3, 10 μM, TGF-β1 40 pM 24 h, dexamethasone 30 nM 4 h)
1 | Cl.Nc1nccc(-c2c(-c3ccc(F)cc3)ncn2C2CCCCC2)n1 [PF670462, 4-(1-Cyclohexyl-4-(4-fluorophenyl)-1H-imidazol-5-yl)pyrimidin-2-amine hydrochloride, reference compound] | 3.36 ± 0.25 | 0.91 ± 0.08 | 2.56 ± 0.08 | 1.11 ± 0.10 | inhibited | 1.30 ± 0.18 | 0.74 | 1.64 ± 0.27 | 0.47 | 0.26 ± 0.04 | – | – | – | – | –
2 | CCCCCCCCN1CCC(n2cnc(-c3ccc(F)cc3)c2-c2ccnc(N)n2)CC1 [SS8-058, 4-(4-(4-Fluorophenyl)-1-[1-octylpiperidin-4-yl]-1H-imidazol-5-yl)pyrimidin-2-amine] | – | – | – | – | – | – | – | 9.14 ± 1.23 | 0.91 | 0.37 ± 0.04 | 6.57 | 0.91 | 3.77 | 2.62 | –
3 | CNc1nccc(-c2c(-c3ccc(F)cc3)ncn2C2CCCCC2)n1 [SS9-010, 4-(1-Cyclohexyl-4-(4-fluorophenyl)-1H-imidazol-5-yl)-N-methylpyrimidin-2-amine] | 3.77 ± 0.33 | 0.67 ± 0.03 | 2.77 ± 0.31 | 1.14 ± 0.05 | inhibited | – | – | 0.64 ± 0.05 | 0.43 | 0.18 ± 0.00 | – | – | – | – | similar
